Measured values published in ChEMBL document CHEMBL4342407, “Thieno[2,3-d]pyrimidine as a promising scaffold in medicinal chemistry: Recent advances” (Bioorg Med Chem, 2019).
In brackets after ≈: the same amount, converted by molar mass.

What was measured:
Escherichia coli [1] = assay: Antibacterial activity against Escherichia coli assessed as diameter of zone inhibition at 0.5% incubated for 24 hrs by stiff plate agar diffusion method; assay type: functional
Aspergillus niger [2] = assay: Antifungal activity against Aspergillus niger assessed as diameter of zone inhibition at 0.5% incubated for 24 hrs by stiff plate agar diffusion method; assay type: functional
Aspergillus niger [3] = assay: Antifungal activity against Aspergillus niger assessed as diameter of zone inhibition at 0.1% incubated for 24 hrs by stiff plate agar diffusion method; assay type: functional
Aspergillus niger [4] = assay: Antifungal activity against Aspergillus niger incubated for 24 to 72 hrs by Serial dilution method; assay type: functional
A549 [5] = assay: Antiproliferative activity against human A549 after 48 hrs by MTT assay; assay type: functional; conditions: A549, 48 h
HT-29 = assay: Antiproliferative activity against human HT-29 after 48 hrs by MTT assay; assay type: functional; conditions: HT-29, 48 h
DU-145 = assay: Antiproliferative activity against human DU145 after 48 hrs by MTT assay; assay type: functional; conditions: DU-145, 48 h
HCT-15 = assay: Antiproliferative activity against human HCT15 after 48 hrs by MTT assay; assay type: functional; conditions: HCT-15, 48 h
BT-549 = assay: Antiproliferative activity against human BT549 after 48 hrs by MTT assay; assay type: functional; conditions: BT-549, 48 h
HCT-116 [6] = assay: Antiproliferative activity against human HCT116 after 48 hrs by MTT assay; assay type: functional; conditions: HCT-116, 48 h
MCF7 [7] = assay: Antiproliferative activity against human MCF7 after 48 hrs by MTT assay; assay type: functional; conditions: MCF7, 48 h
MDA-MB-453 = assay: Antiproliferative activity against human MDA-MB-453 after 48 hrs by MTT assay; assay type: functional; conditions: MDA-MB-453, 48 h
HepG2 = assay: Antiproliferative activity against human HepG2 after 24 hrs by MTT assay; assay type: functional, cell-based; conditions: HepG2, 24 h
[8] = Inhibition of PTK (unknown origin) using poly-Glu-Tyr (PGT) as substrate by ELISA; parameters: species or system Homo sapiens
HeLa = assay: Antiproliferative activity against human HeLa after 24 hrs by MTT assay; assay type: functional, cell-based
HEp-2 = assay: Antiproliferative activity against human Hep2 after 24 hrs by MTT assay; assay type: functional, cell-based; conditions: HEp-2, 24 h
MCF7 [9] = assay: Antiproliferative activity against human MCF7 after 24 hrs by MTT assay; assay type: functional, cell-based; conditions: MCF7, 24 h
PC-3 = assay: Antiproliferative activity against human PC3 after 24 hrs by MTT assay; assay type: functional, cell-based; conditions: PC-3, 24 h
Staphylococcus aureus [10] = assay: Antibacterial activity against Staphylococcus aureus ATCC 25923 assessed as diameter of zone inhibition at 100 ug/ml; assay type: functional; conditions: read-out: DIZ
Escherichia coli [11] = assay: Antibacterial activity against Escherichia coli ATCC 25922 assessed as diameter of zone inhibition at 100 ug/ml; assay type: functional; conditions: read-out: DIZ
Bacillus subtilis [12] = assay: Antibacterial activity against Bacillus subtilis ATCC 6633 assessed as diameter of zone inhibition at 100 ug/ml; assay type: functional; conditions: read-out: DIZ
Escherichia coli [13] = assay: Antibacterial activity against Escherichia coli ATCC 25922 assessed as diameter of zone inhibition at 30 ug/ml; assay type: functional; conditions: read-out: DIZ
Bacillus subtilis [14] = assay: Antibacterial activity against Bacillus subtilis ATCC 6633 assessed as diameter of zone inhibition at 30 ug/ml; assay type: functional; conditions: read-out: DIZ
Staphylococcus aureus [15] = assay: Antibacterial activity against Staphylococcus aureus ATCC 25923 assessed as diameter of zone inhibition at 30 ug/ml; assay type: functional; conditions: read-out: DIZ
Rattus norvegicus = assay: Antiinflammatory activity in Sprague-Dawley rat assessed as inhibition of carrageenan-induced edema at 10 mg/kg, po pretreated for 1 hr followed by carrageenan challenge and measured after 4 hrs by mercury plethysmometer relative to control; assay type: functional
MCF7 [16] = assay: Antiproliferative activity against human MCF7 after 18 hrs by MTT assay; assay type: functional, cell-based; conditions: MCF7, 18 h
A549 [17] = assay: Antiproliferative activity against human A549 after 18 hrs by MTT assay; assay type: functional, cell-based; conditions: A549, 18 h
HCT-116 [18] = assay: Antiproliferative activity against human HCT116 after 18 hrs by MTT assay; assay type: functional, cell-based; conditions: HCT-116, 18 h
Candida albicans = assay: Antifungal activity against Candida albicans ATCC 653/885 assessed as diameter of zone inhibition at 30 ug/ml; assay type: functional; conditions: read-out: DIZ
Rhodococcus fascians = assay: Antibacterial activity against Mycobacterium luteum assessed as diameter of zone inhibition at 0.5% incubated for 24 hrs by stiff plate agar diffusion method; assay type: functional, Rhodococcoides fascians
Staphylococcus aureus [19] = assay: Antibacterial activity against Staphylococcus aureus assessed as diameter of zone inhibition at 0.5% incubated for 24 hrs by stiff plate agar diffusion method; assay type: functional

For `CCCCCc1sc2nc[nH]c(=[Se])c2c1CCCCC`, the “diameter of the inhibition zone (DIZ)” value (Escherichia coli [1]) was 14 mm, the “diameter of the inhibition zone (DIZ)” value (Aspergillus niger [2]) was 22 mm and the “diameter of the inhibition zone (DIZ)” value (Aspergillus niger [3]) was 12 mm. It also gave an MIC (Aspergillus niger [4]) of 31.2 µg/mL (≈ 87.8 µM).
For `Cc1ccc([N+](=O)[O-])c(C(=O)Nc2cccc(Nc3ncnc4sccc34)c2)c1`, the GI50 (A549 [5]) was 8.6 µM, the GI50 (HT-29) was > 10 µM and the GI50 (DU-145) was 7.5 µM. For the same compound, the GI50 (HCT-15) was 3.6 µM, the GI50 (BT-549) was > 10 µM and the GI50 (HCT-116 [6]) was 3.5 µM. For the same compound, the GI50 (MCF7 [7]) was 3.3 µM and the GI50 (MDA-MB-453) was 8.2 µM.
For `O=C(Nc1cccc(Nc2ncnc3sccc23)c1)c1ccc(F)cc1`, the GI50 (A549 [5]) was 4.3 µM, the GI50 (HT-29) was > 10 µM and the GI50 (DU-145) was 9.2 µM. The GI50 (HCT-15) was > 10 µM, the GI50 (BT-549) was 1.3 µM and the GI50 (HCT-116 [6]) was 10.2 µM. For the same compound, the GI50 (MCF7 [7]) was 1.6 µM and the GI50 (MDA-MB-453) was > 10 µM.
In the case of `COc1cc(/C=C/C(=O)c2sc3nc(S)n(-c4ccccc4)c(=O)c3c2C)cc(OC)c1OC`, the IC50 (HepG2) is reported as 20.6 µM, the IC50 [8] is reported as 203 µM and the IC50 (HeLa) is reported as 12.9 µM. The IC50 (HEp-2) was 22.1 µM, the IC50 (MCF7 [9]) was 17.1 µM and the IC50 (PC-3) was 16.4 µM.
With `Cc1sc2nc[nH]c(=[Se])c2c1C` the “diameter of the inhibition zone (DIZ)” value (Escherichia coli [1]) was 14.7 mm and the “diameter of the inhibition zone (DIZ)” value (Aspergillus niger [2]) was 12 mm.
With `O=C(/C=C/c1cccc(C(F)(F)F)c1)Nc1cccc(Nc2ncnc3sccc23)c1` the GI50 (A549 [5]) was 4.6 µM, the GI50 (HT-29) was > 10 µM and the GI50 (DU-145) was 5.4 µM. For the same compound, the GI50 (HCT-15) was 5.1 µM, the GI50 (BT-549) was 3.1 µM and the GI50 (HCT-116 [6]) was 5.8 µM. The GI50 (MCF7 [7]) was 0.8 µM and the GI50 (MDA-MB-453) was 0.9 µM.
Work on `Cc1c(-c2nnc(-c3ccccc3)o2)sc2c1c(=O)n(-c1ccccc1)c(=O)n2Cc1nc(-c2ccc(Cl)cc2)no1` yielded a zone of inhibition at 100 µg/mL (Staphylococcus aureus [10]) of 15 mm, a zone of inhibition at 100 µg/mL (Escherichia coli [11]) of 14 mm and a zone of inhibition at 100 µg/mL (Bacillus subtilis [12]) of 17 mm.
`CN[C@@H]1[C@H](O[C@H]2[C@H](O[C@H]3[C@H](O)[C@@H](O)[C@H](N=C(N)N)[C@@H](O)[C@@H]3N=C(N)N)O[C@@H](C)[C@]2(O)C=O)O[C@@H](CO)[C@H](O)[C@H]1O` [STREPTOMYCIN] showed a zone of inhibition at 30 µg/mL (Escherichia coli [13]) of 16 mm, a zone of inhibition at 30 µg/mL (Bacillus subtilis [14]) of 17 mm and a zone of inhibition at 30 µg/mL (Staphylococcus aureus [15]) of 15 mm.
With `COc1ccc2c(c1)c(CC(=O)O)c(C)n2C(=O)c1ccc(Cl)cc1` [INDOMETHACIN] the inhibition in vivo at 10 mg/kg (Rattus norvegicus) was 49.1%.
In the case of `Cc1ccc(-c2cc(COc3ncnc4sc(C)cc34)on2)cc1`, the IC50 (MCF7 [16]) is reported as 13.5 µM, the IC50 (A549 [17]) is reported as 144 µM and the IC50 (HCT-116 [18]) is reported as 53.9 µM.
Work on `Cc1ccc(/C=C/C(=O)c2sc3nc(S)n(-c4ccccc4)c(=O)c3c2C)cc1` yielded an IC50 (HepG2) of 7.99 µM, an IC50 [8] of 136 µM and an IC50 (HeLa) of 4.3 µM. For the same compound, the IC50 (HEp-2) was 5.4 µM, the IC50 (MCF7 [9]) was 6.84 µM and the IC50 (PC-3) was 7.71 µM.
`Cc1ncc([N+](=O)[O-])n1CCO` [METRONIDAZOLE] showed a zone of inhibition at 30 µg/mL (Escherichia coli [13]) of 14 mm, a zone of inhibition at 30 µg/mL (Bacillus subtilis [14]) of 16 mm and a zone of inhibition at 30 µg/mL (Staphylococcus aureus [15]) of 14 mm. The zone of inhibition at 30 µg/mL (Candida albicans) was 14 mm.
Work on `Cc1c(-c2nnc(-c3ccccc3)o2)sc2c1c(=O)n(-c1ccccc1)c(=O)n2Cc1nc(-c2ccccc2Cl)no1` yielded a zone of inhibition at 100 µg/mL (Staphylococcus aureus [10]) of 15 mm, a zone of inhibition at 100 µg/mL (Escherichia coli [11]) of 14 mm and a zone of inhibition at 100 µg/mL (Bacillus subtilis [12]) of 17 mm.
In the case of `CCOC(=O)CSc1ncnc2sc(CC)c(CC)c12`, the MIC (Aspergillus niger [4]) is reported as 31.2 µg/mL (≈ 101 µM).
`Cc1c(-c2nnc(-c3ccccc3)o2)sc2c1c(=O)n(-c1ccccc1)c(=O)n2Cc1nc(-c2ccccc2)no1` gave a zone of inhibition at 100 µg/mL (Staphylococcus aureus [10]) of 15 mm, a zone of inhibition at 100 µg/mL (Escherichia coli [11]) of 14 mm and a zone of inhibition at 100 µg/mL (Bacillus subtilis [12]) of 17 mm.
In the case of `CCc1sc2ncnc(SCC(=O)NS(=O)(=O)c3ccc(Cl)cc3)c2c1CC`, the “diameter of the inhibition zone (DIZ)” value (Rhodococcus fascians) is reported as 17 mm and the “diameter of the inhibition zone (DIZ)” value (Staphylococcus aureus [19]) is reported as 12 mm.
